Earlier results on two substances are cited in article PMC5693942 (Scientific Reports, 2017).

The conditions of the data set: in vivo; cited from earlier work.

As to FL glucuronide, the “excreted in the urine as this species” value was 7.4%.

With NFL glucuronide, the “excreted in the urine as this species” value is 8.2%.
